Test results: patent US9518055B2, “Imidazopyridyl compounds as aldosterone synthase inhibitors” (Merck Sharp & Dohme Corp., priority 2011, dated 2016)

Key:
[1] = target: human CYP11B1 (Homo sapiens (Human), UniProt P15538); test: V79-Human-CYP11B1 cell assay; type: cell-based; conditions: for inhibition at 10 µM: starred values of the CYP11B1 column; for IC50: V79 cells stably expressing human CYP11B1, 250 nM 11-deoxycortisol substrate, cortisol measured by HTRF
Procedure: (§1) Methods for V79-Human-CYP11B2 and V79-Human-CYP11B1 Assays:
(§2) V79 cell lines stably expressing the either the human CYP11B2 or the human CYP11B1 enzyme were generated using a standard transfection protocol. V79 cells were transfected with plasmids pTriEx3-Hygro-hCyp11B2 or pTriEx3-Hygro-hCyp11B1 using Lipofectamine2000 reagent. V79 cells that stably express the human CYP11B2 or human CYP11B1 enzyme were selected for and maintained in DMEM supplemented with 10% FBS and 400 μg/mL hygromycin for ˜2 weeks. Single cell clones were generated by […] in DMEM supplemented with 10% FBS and 400 μg/mL hygromycin until single colonies were obtained. […] For testing of inhibitors, cells were harvested at 80% confluency with 0.5% Trypsan-EDTA, washed once in PBS, and reconstituted in DMEM+0.1% BSA media at a cell concentration of 600,000 cells/mL for the CYP11B2 assay and 280,000 cells/mL for the CYP11B1 assay. 25 μL of cells were added to a 384 well tissue culture treated plate and mixed with 0.3 μL of inhibitor or DMSO (1% final DMSO concentration) for 1 hour at 37° C., 5% CO2. […] The reaction was carried out for 3 hours at 37° C., 5% CO2 and was stopped by harvesting the supernatants. The amount of product in the supernatant (aldosterone for CYP11B2 assay and cortisol for the CYP11B1 assay) was measured using HTRF-based assay kit (Aldosterone HTRF-CisBio#64ALDPEB, Cortisol HTRF-CisBio #63IDC002-CORT). IC50s for the inhibitor were determined by plotting the amount of product formed against the concentration of inhibitor using sigmoidal dose-response curve (variable slope) fit in GraphPad.

[2] = target: human CYP11B2 (Homo sapiens (Human), UniProt P19099); test: V79-Human-CYP11B2 cell assay; type: cell-based; conditions: V79 cells stably expressing human CYP11B2; 125 nM 11-deoxycorticosterone substrate; aldosterone measured by HTRF
Chain of human CYP11B2 (P19099 25-503): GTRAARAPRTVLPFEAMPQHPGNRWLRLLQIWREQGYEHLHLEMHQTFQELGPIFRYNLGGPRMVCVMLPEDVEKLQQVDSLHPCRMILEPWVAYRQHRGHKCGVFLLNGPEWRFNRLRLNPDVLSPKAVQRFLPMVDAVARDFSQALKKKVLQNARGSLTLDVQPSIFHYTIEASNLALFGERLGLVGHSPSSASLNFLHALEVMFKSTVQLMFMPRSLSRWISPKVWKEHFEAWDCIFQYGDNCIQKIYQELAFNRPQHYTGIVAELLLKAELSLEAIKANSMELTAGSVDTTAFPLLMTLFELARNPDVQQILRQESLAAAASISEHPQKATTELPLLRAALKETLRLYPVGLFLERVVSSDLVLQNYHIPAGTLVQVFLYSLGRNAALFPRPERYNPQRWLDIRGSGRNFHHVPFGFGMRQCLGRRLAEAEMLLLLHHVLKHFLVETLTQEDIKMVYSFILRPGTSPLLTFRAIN
Procedure: as §1, §2

Chain of human CYP11B1 (P15538 25-503): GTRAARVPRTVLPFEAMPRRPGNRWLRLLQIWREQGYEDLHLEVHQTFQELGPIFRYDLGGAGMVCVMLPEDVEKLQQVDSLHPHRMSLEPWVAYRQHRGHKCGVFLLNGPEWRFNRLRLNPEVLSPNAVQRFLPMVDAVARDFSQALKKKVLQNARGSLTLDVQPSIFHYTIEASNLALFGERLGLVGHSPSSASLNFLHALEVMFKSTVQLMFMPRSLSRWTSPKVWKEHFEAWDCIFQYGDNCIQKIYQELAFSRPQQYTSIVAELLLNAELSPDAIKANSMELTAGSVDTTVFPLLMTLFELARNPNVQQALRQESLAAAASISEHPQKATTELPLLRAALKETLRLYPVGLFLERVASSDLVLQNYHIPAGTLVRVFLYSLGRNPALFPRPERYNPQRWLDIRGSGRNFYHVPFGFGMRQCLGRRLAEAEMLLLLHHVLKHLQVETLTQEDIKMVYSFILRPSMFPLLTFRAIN

SMILES	inhibition at 10 µM [1]	IC50 [2]	IC50 [1]
Cc1ccncc1-c1cn2cc(F)ccc2n1 [Example 6, 6-fluoro-2-(4-methylpyridin-3-yl)imidazo[1,2-a]pyridine]	63%	22.4 nM	–
Cc1cncc(-c2cn3cc(F)ccc3n2)c1 [Example 7, 6-fluoro-2-(5-methylpyridin-3-yl)imidazo[1,2-a]pyridine]	60%	56.2 nM	–
Cc1ccncc1-c1nc2ccc(F)cn2c1C [Example 20, 6-fluoro-3-methyl-2-(4-methylpyridin-3-yl)imidazo[1,2-a]pyridine]	–	2.2 nM	135 nM
Cc1c(-c2cncc3ccccc23)nc2ccc(F)cn12 [Example 25]	–	0.1 nM	14.8 nM

Continued, values first:

inhibition at 10 µM [1]	IC50 [2]	IC50 [1]	SMILES
–	0.3 nM	32.4 nM	COc1cncc(-c2nc3ccc(F)cn3c2C)c1 [Example 18, 6-fluoro-3-methyl-2-(5-methoxypyridin-3-yl)imidazo[1,2-a]pyridine]
–	0.45 nM	40.7 nM	Cc1cncc(-c2nc3ccc(F)cn3c2C)c1 [Example 19, 6-fluoro-3-methyl-2-(5-methylpyridin-3-yl)imidazo[1,2-a]pyridine]
–	4.7 nM	912 nM	Cc1c(-c2cncc(F)c2)nc2cc(F)ccn12 [Example 26, 7-fluoro-2-(5-fluoropyridin-3-yl)-3-methylimidazo[1,2-a]pyridine]
